Measurements from patent publication US10344019B2 (priority 2010, dated 2019).
pEC50: −log10 of the molar value. Where two headings read alike, the source gives them in different places.

What was measured:
Format in all cases: cell-based
[1] = tested on: HCV 1a RLuc cells (dicistronic genotype 1a H77 replicon, RLuc reporter); experiment: microbe, parasite or virus in culture; conditions: Hepatitis C virus, read-out: 1a
Method in brief: (§1)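 Replicons used: genotype 1b Con1, 1a H77, 2a JFH-1, and a 2a JFH-1 chimera with J6-strain NS5A (M31 present), all dicistronic.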

[2] = tested on: HCV 1b RLuc cells (dicistronic genotype 1b Con1 replicon, RLuc reporter); experiment: microbe, parasite or virus in culture; conditions: Hepatitis C virus, read-out: 1b (nM)
Method in brief: as §1

[3] = tested on: HCV 2a JFH-1 Rluc cells (dicistronic genotype 2a JFH-1 replicon, RLuc reporter); experiment: microbe, parasite or virus in culture; conditions: Hepatitis C virus, read-out: 2a JFH
Method in brief: as §1

[4] = tested on: HCV 2b Rluc cells (NS5A chimeric genotype 2a JFH-1 replicon with genotype 2b MD2b-1 NS5A gene, M31 present); experiment: microbe, parasite or virus in culture; conditions: Hepatitis C virus, read-out: 2b
Method in brief: (§2)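 Replicon cells stably carrying the listed RLuc-encoding dicistronic replicons were seeded and treated with DMSO serial dilutions of compound (10 mM stocks) diluted into culture medium. After 72 h, cells were lysed and Renilla luciferase activity measured. EC50 was derived by non-linear regression.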

[5] = tested on: HCV 3a RLuc cells (NS5A chimeric genotype 1b Con1 replicon with consensus genotype 3a NS5A gene); experiment: microbe, parasite or virus in culture; conditions: Hepatitis C virus
Method in brief: as §2

[6] = tested on: HCV 4a Rluc cells (NS5A chimeric genotype 1b Con1 replicon with genotype 4a NS5A gene); experiment: microbe, parasite or virus in culture; conditions: Hepatitis C virus, read-out: 4a
Method in brief: as §2

[7] = tested on: Q30R in genotype 1a NS5A, 1a Rluc replicon transfected into Huh-7 cured-51 cells; experiment: HCV replicon assay, resistance mutant 1a Q30R; conditions: Hepatitis C virus, Huh-7, read-out: 1a Q30R
Method in brief: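 Q30R introduced into genotype 1a H77 RLuc replicon by site-directed mutagenesis; replicon RNA transfected into Huh-7 cured-51 cells.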

[8] = tested on: HCV 2a Rluc cells (NS5A chimeric genotype 2a JFH-1 replicon with genotype 2a J6 strain NS5A gene, M31 present); experiment: HCV replicon reporter assay, genotype 2a J6 (M31 present); conditions: Hepatitis C virus, read-out: 2a J6
Method in brief: as §1

[9] = read-out: 3a, genotype 3a replicon
[10] = genotype 2a JFH-1 RLuc replicon
[11] = read-out: 3a, genotype 3a NS5A chimeric replicon
[12] = 72 h, Table 1, genotype 1a H77 replicon, 72 hours
[13] = 72 h, Table 1, genotype 2a JFH-1 replicon, 72 hours
[14] = read-out: 3a, Table 1, genotype 3a NS5A chimeric replicon

Row | SMILES | pEC50 ([1]; genotype 1a replicon) | EC50 [2] [nM] | pEC50 ([3]; genotype 2a JFH-1 replicon) | pEC50 [4] | pEC50 [5, 9] | pEC50 [6] | pEC50 [7] | pEC50 [8] | pEC50 ([1]; genotype 1a H77 RLuc replicon) | pEC50 [3, 10] | pEC50 [5, 11] | pEC50 [1, 12] | EC50 ([2]; 72 h) [nM] | pEC50 [3, 13] | pEC50 [5, 14] | pEC50 ([1]; 72 h, Table 2, genotype 1a H77 replicon, 72 hours) | pEC50 ([3]; 72 h, Table 2, genotype 2a JFH-1 replicon, 72 hours) | pEC50 ([5]; read-out: 3a, Table 2, genotype 3a NS5A chimeric replicon)
1 | COC[C@H]1C[C@@H](c2nc3ccc4cc(-c5ccc6c(ccc7nc([C@@H]8CCCN8C(=O)[C@@H](NC(=O)OC)C(C)C)[nH]c76)c5)ccc4c3[nH]2)N(C(=O)[C@@H](NC(=O)OC)C(C)C)C1 [Example 398] | 9.00 to 12.00 | 0.023 | 9.00 to 12.00 | 9.00 to 12.00 | 9.00 to 12.00 | 9.00 to 12.00 | 9.00 to 12.00 | 9.00 to 12.00 |  |  |  |  |  |  |  |  |  | 
2 | CCO[C@H]1C[C@@H](c2nc3ccc4cc5c(cc4c3[nH]2)OCc2cc(-c3cnc([C@@H]4CCCN4C(=O)[C@@H](NC(=O)OC)C(C)C)[nH]3)ccc2-5)N(C(=O)[C@@H](NC(=O)OC)C(C)C)C1 [Example 551] |  | 0.018 |  | 9.00 to 12.00 |  | 9.00 to 12.00 | 9.00 to 12.00 | 9.00 to 12.00 | 9.00 to 12.00 | 9.00 to 12.00 | 9.00 to 12.00 |  |  |  |  |  |  | 
3 | COC[C@H]1C[C@@H](c2nc3ccc4cc(-c5ccc6c(ccc7nc([C@@H]8C[C@H](C)CN8C(=O)[C@@H](NC(=O)OC)C(C)C)[nH]c76)c5)ccc4c3[nH]2)N(C(=O)[C@@H](NC(=O)OC)[C@@H](C)OC)C1 [Example 559] |  | 0.08 |  | 9.00 to 12.00 |  | 9.00 to 12.00 | 9.00 to 12.00 | 9.00 to 12.00 | 9.00 to 12.00 | 9.00 to 12.00 | 9.00 to 12.00 |  |  |  |  |  |  | 
4 | COC[C@H]1C[C@@H](c2nc3ccc4cc(-c5ccc6c(ccc7nc([C@@H]8C[C@H](C)CN8C(=O)[C@@H](NC(=O)OC)C(C)C)[nH]c76)c5)ccc4c3[nH]2)N(C(=O)[C@@H](NC(=O)OC)C(C)C)C1 [Example 568] |  | 0.021 |  | 9.00 to 12.00 |  | 9.00 to 12.00 | 9.00 to 12.00 | 9.00 to 12.00 | 9.00 to 12.00 | 9.00 to 12.00 | 9.00 to 12.00 |  |  |  |  |  |  | 
5 | COC(=O)N[C@H](C(=O)N1CCC[C@H]1c1ncc(-c2cc3c4c(c2)OCc2cc(-c5cnc([C@@H]6CCCN6C(=O)[C@H](NC(=O)OC)c6ccccc6)[nH]5)cc(c2-4)OC3)[nH]1)C(C)C [Example 25c] |  |  |  | 9.00 to 12.00 |  | 9.00 to 12.00 | 9.00 to 12.00 | 7.36 to 9.00 |  |  |  | 9.00 to 12.00 | 0.031 | 9.00 to 12.00 | 9.00 to 12.00 |  |  | 
6 | COC[C@H]1C[C@@H](c2nc3ccc4cc(-c5ccc6c(ccc7nc([C@@H]8C[C@H](SC)CN8C(=O)[C@@H](NC(=O)OC)C(C)C)[nH]c76)c5)ccc4c3[nH]2)N(C(=O)[C@H](NC(=O)OC)c2ccccc2)C1 [Example 546] |  | 0.048 |  | 9.00 to 12.00 |  | 9.00 to 12.00 | 9.00 to 12.00 | 9.00 to 12.00 | 9.00 to 12.00 | 9.00 to 12.00 | 9.00 to 12.00 |  |  |  |  |  |  | 
7 | COC[C@H]1C[C@@H](c2nc3ccc4cc5c(cc4c3[nH]2)OCc2cc(-c3cnc([C@@H]4CC[C@H](C)N4C(=O)[C@@H](NC(=O)OC)C(C)C)[nH]3)ccc2-5)N(C(=O)[C@@H](NC(=O)OC)C(C)C)C1 [Example 561] |  | 0.01 |  | 9.00 to 12.00 |  | 9.00 to 12.00 | 9.00 to 12.00 | 9.00 to 12.00 | 9.00 to 12.00 | 9.00 to 12.00 | 9.00 to 12.00 |  |  |  |  |  |  | 
8 | COC[C@H]1C[C@@H](c2ncc(-c3ccc4c(c3)COc3cc5c(ccc6nc([C@@H]7C[C@H](COC)CN7C(=O)[C@@H](NC(=O)OC)C(C)C)[nH]c65)cc3-4)[nH]2)N(C(=O)[C@@H](NC(=O)OC)C(C)C)C1 [Example 579] |  | 0.034 |  | 9.00 to 12.00 |  | 9.00 to 12.00 | 9.00 to 12.00 | 9.00 to 12.00 | 9.00 to 12.00 | 9.00 to 12.00 | 9.00 to 12.00 |  |  |  |  |  |  | 
9 | COC[C@H]1C[C@@H](c2ncc(-c3ccc(-c4ccc5c(ccc6nc([C@@H]7CCCN7C(=O)[C@@H](NC(=O)OC)C(C)C)[nH]c65)c4)cc3)[nH]2)N(C(=O)[C@H](NC(=O)OC)c2ccccc2)C1 [Example 446] | 9.00 to 12.00 | 0.03 | 9.00 to 12.00 | 9.00 to 12.00 | 9.00 to 12.00 | 9.00 to 12.00 | 9.00 to 12.00 | 9.00 to 12.00 |  |  |  |  |  |  |  |  |  | 
10 | COC[C@H]1C[C@@H](c2nc3ccc4cc(-c5ccc(-c6cnc([C@@H]7CCCN7C(=O)[C@@H](NC(=O)OC)C(C)C)[nH]6)cc5)ccc4c3[nH]2)N(C(=O)[C@H](NC(=O)C2CC2)c2ccccc2)C1 [Example 475] | 9.00 to 12.00 | 0.019 | 9.00 to 12.00 | 9.00 to 12.00 | 9.00 to 12.00 | 9.00 to 12.00 | 9.00 to 12.00 | 9.00 to 12.00 |  |  |  |  |  |  |  |  |  | 
11 | COC(=O)N[C@H](C(=O)N1CCC[C@H]1c1nc2ccc3cc(-c4ccc5c(ccc6nc([C@@H]7[C@H]8CC[C@H](C8)N7C(=O)[C@@H](NC(=O)OC)C(C)C)[nH]c65)c4)ccc3c2[nH]1)C(C)C [Example 63] |  |  |  | < 7.36 |  | 9.00 to 12.00 | 7.36 to 9.00 | 7.36 to 9.00 |  |  |  |  | 0.019 |  |  | 9.00 to 12.00 | 9.00 to 12.00 | 9.00 to 12.00
12 | COC(=O)N[C@@H](C(=O)N1CCC[C@H]1c1ncc(-c2cc3c4c(c2)OCc2cc(-c5cnc([C@@H]6CCCN6C(=O)[C@H](NC(=O)OC)c6ccccc6)[nH]5)cc(c2-4)OC3)[nH]1)c1ccccc1 [Example 25d] |  |  |  | 9.00 to 12.00 |  | 9.00 to 12.00 | 9.00 to 12.00 | 9.00 to 12.00 |  |  |  | 9.00 to 12.00 | 0.048 | 9.00 to 12.00 | 9.00 to 12.00 |  |  | 
13 | COC[C@H]1C[C@@H](c2nc3ccc4cc(-c5ccc6c(ccc7nc([C@@H]8C[C@H](C)CN8C(=O)[C@@H](NC(=O)OC)C(C)C)[nH]c76)c5)ccc4c3[nH]2)N(C(=O)[C@@H](NC(=O)OC)C2CCOCC2)C1 [Example 560] |  | 0.092 |  | 9.00 to 12.00 |  | 9.00 to 12.00 | 9.00 to 12.00 | 9.00 to 12.00 | 9.00 to 12.00 | 9.00 to 12.00 | 9.00 to 12.00 |  |  |  |  |  |  | 
14 | COC[C@H]1C[C@@H](c2nc3ccc4cc5c(cc4c3[nH]2)OCc2cc(-c3cnc([C@@H]4C[C@H]6C[C@H]6N4C(=O)[C@@H](NC(=O)OC)C(C)C)[nH]3)ccc2-5)N(C(=O)[C@H](NC(=O)OC)c2ccccc2)C1 [Example 539] |  | 0.016 |  | 9.00 to 12.00 |  | 9.00 to 12.00 | 9.00 to 12.00 | 9.00 to 12.00 | 9.00 to 12.00 | 9.00 to 12.00 | 9.00 to 12.00 |  |  |  |  |  |  | 
15 | CC#Cc1cc2nc([C@@H]3CCCN3C(=O)[C@@H](NC(=O)OC)C(C)C)[nH]c2c2ccc(-c3ccc4c(ccc5nc([C@@H]6C[C@H](COC)CN6C(=O)[C@H](NC(=O)OC)c6ccccc6)[nH]c54)c3)cc12 [Example 581] |  | 0.007 |  | 9.00 to 12.00 |  | 9.00 to 12.00 | 9.00 to 12.00 | 9.00 to 12.00 | 9.00 to 12.00 | 9.00 to 12.00 | 9.00 to 12.00 |  |  |  |  |  |  | 
16 | COC[C@H]1C[C@@H](c2nc3ccc4cc5c(cc4c3[nH]2)OCc2cc(-c3cnc([C@@H]4CCCN4C(=O)[C@@H](NC(=O)OC)C(C)C)[nH]3)ccc2-5)N(C(=O)[C@@H](NC(=O)OC)C(C)C)C1 [Example 495] |  | 0.026 |  | 9.00 to 12.00 |  | 9.00 to 12.00 | 9.00 to 12.00 | 9.00 to 12.00 | 9.00 to 12.00 | 9.00 to 12.00 | 9.00 to 12.00 |  |  |  |  |  |  | 
17 | CCO[C@H]1C[C@@H](c2nc3ccc4cc5c(cc4c3[nH]2)OCc2cc(-c3cnc([C@@H]4CCCN4C(=O)[C@H](NC(=O)OC)c4ccccc4)[nH]3)ccc2-5)N(C(=O)[C@@H](NC(=O)OC)C(C)C)C1 [Example 552] |  | 0.033 |  | 9.00 to 12.00 |  | 9.00 to 12.00 | 9.00 to 12.00 | 9.00 to 12.00 | 9.00 to 12.00 | 9.00 to 12.00 | 9.00 to 12.00 |  |  |  |  |  |  | 
18 | COC(=O)N[C@H](C(=O)N1CCC[C@H]1c1nc2ccc3cc(-c4ccc5c(ccc6nc([C@@H]7CC8(CN7C(=O)[C@H](NC(=O)OC)c7ccccc7)OCCO8)[nH]c65)c4)ccc3c2[nH]1)C(C)C [Example 317] | 9.00 to 12.00 | 0.023 | 9.00 to 12.00 | 9.00 to 12.00 | 9.00 to 12.00 | 9.00 to 12.00 | 9.00 to 12.00 | 9.00 to 12.00 |  |  |  |  |  |  |  |  |  | 
